Consider three molecules from ChEMBL document CHEMBL4043274, “4-Hydroxy-2-pyridones: Discovery and evaluation of a novel class of antibacterial agents targeting DNA synthesis” (Bioorg Med Chem Lett, 2017).

A short description of data set [1]: Volume of distribution at steady state in Sprague-Dawley rat at 10 mg/kg, iv administered as single dose. To be noted: in vivo, read-out: Vdss. It counts as ADME, organism-based.
In data set [2] the test system is Escherichia coli. The data set is described as follows: Antibacterial activity against clinical isolates of Escherichia coli by broth microdilution assay. It counts as functional.
For another data set, the system named is Klebsiella pneumoniae. The data set is described as follows: Antibacterial activity against Klebsiella pneumoniae ATCC 35657 by CLSI M100-S17 protocol based method. It counts as functional.
The next data set relates to Acinetobacter baumannii. Kind of data set: Antibacterial activity against Acinetobacter baumannii ATCC BAA-747 by CLSI M100-S17 protocol based method. Type of data set: functional.
The subject of data set [3] is Escherichia coli. The data set is described as follows: Antibacterial activity against wild-type Escherichia coli ATCC 25922 infected in iv dosed CD-1 mouse assessed as mouse survival treated for 1 hr followed by reinfection with bacteria measured at 96 hrs post infection. It counts as functional. The note with it: ATCC 25922, iv, read-out: PD50.
A short description of data set [4]: (§1) Inhibition of Escherichia coli ATCC 25922 topoisomerase-4 ParC at 100 uM using kinetoplast DNA as substrate after 60 mins relative to control.
The nature of data set [5]: Oral bioavailability in Sprague-Dawley rat. The note with it: in vivo. Type of data set: ADME, organism-based.
The subject of data set [6] is Staphylococcus aureus. The data set is described as follows: Antibacterial activity against multidrug resistant Staphylococcus aureus by broth microdilution assay. Type of data set: functional.
Data set [7] has as its system Rattus norvegicus. The data set is described as follows: Dose normalized AUC (0 to 24 hrs) in Sprague-Dawley rat at 10 mg/kg, iv administered as single dose. The note with it: in vivo. It counts as ADME, organism-based.
Data set [8] has as its system Escherichia coli. The data set is described as follows: Ratio of MIC in presence to absence of HSA for wild-type Escherichia coli ATCC 25922. It counts as functional.
Data set [9] relates to Escherichia coli. Kind of data set: Antibacterial activity against Escherichia coli BAS849 by CLSI M100-S17 protocol based method. It counts as functional.
The subject of data set [10] is Escherichia coli. The data set is described as follows: Antibacterial activity against wild-type Escherichia coli ATCC 25922 by CLSI M100-S17 protocol based method. Type of data set: functional.
The test system of data set [11] is Escherichia coli. The data set is described as follows: Antibacterial activity against quinolone resistant Escherichia coli SKM18 by CLSI M100-S17 protocol based method. It counts as functional.
Data set [12] in a line: Protein binding in mouse plasma. It counts as ADME, cell-free. The note with it: read-out: PPB (converted).
In data set [13] the test system is Escherichia coli. The data set is described as follows: Antibacterial activity against wild-type Escherichia coli ATCC 25922 in presence of human serum albumin by CLSI M100-S17 protocol based method. It counts as functional.
A short description of data set [14]: Terminal half life in Sprague-Dawley rat at 10 mg/kg, iv administered as single dose. Type of data set: ADME, organism-based. The note with it: in vivo, read-out: beta t1/2 (converted).
Data set [15] is described as follows: Terminal half life in Sprague-Dawley rat at 5 mg/kg, iv administered as single dose. It counts as ADME, organism-based. The note with it: in vivo, read-out: beta t1/2 (converted).
Data set [16] deals with Rattus norvegicus. The data set is described as follows: Dose normalized AUC (0 to 24 hrs) in Sprague-Dawley rat at 5 mg/kg, iv administered as single dose. Type of data set: ADME, organism-based. To be noted: in vivo.
The nature of data set [17]: Volume of distribution at steady state in Sprague-Dawley rat at 5 mg/kg, iv administered as single dose. It counts as ADME, organism-based. The note with it: in vivo, read-out: Vdss.
Data set [18] in a line: Inhibition of DNA gyrase-A in Escherichia coli ATCC 25922 using relaxed pBR322 DNA as substrate after 30 mins by ethidium bromide staining based agarose gel electrophoresis method.
In data set [19] the test system is Staphylococcus aureus. The data set is described as follows: Antibacterial activity against wild-type Staphylococcus aureus ATCC 29213 by CLSI M100-S17 protocol based method. Type of data set: functional.
Data set [20] has as its system Escherichia coli ATCC 25922. The description is as §1.
In data set [21] the test system is Staphylococcus aureus. Kind of data set: Inhibition of DNA synthesis in wild-type Staphylococcus aureus ATCC 29213 at MIC. Type of data set: functional.

Values after ≈ are worked out from the molar mass of the structure shown. Active and inactive are the calls of the source. No cut-off for these calls is given here. A value given as a limit tells only on which side of the number the result lay.

Take `CCc1c(-c2ccc(N3CC4CCCNC4C3)cc2)[nH]c(=O)c(C(=O)O)c1O` (centres undefined): in data set [1], the Vd is 2.9 L/kg. For the same molecule, the MIC against Escherichia coli [2] is 0.125 to 2 µg/mL (≈ 0.326 to 5.22 µM); against Klebsiella pneumoniae, 0.8 µg/mL (≈ 2.09 µM); in the data set with Acinetobacter baumannii, 1.6 µg/mL (≈ 4.17 µM); in the data set with Staphylococcus aureus [6], 0.125 to 16 µg/mL (≈ 0.326 to 41.7 µM); in the data set with Escherichia coli [9] it was 0.19 µg/mL (≈ 0.496 µM); in the data set with Escherichia coli [10], 0.78 µg/mL (≈ 2.03 µM). The values for the MIC in the data set on Escherichia coli [11] and in the data set on Escherichia coli [13] were 3.1 µg/mL (≈ 8.08 µM) and 1.6 µg/mL, respectively. For the same molecule, the MIC50 in the data set on Escherichia coli [2] and with Staphylococcus aureus [6] was 0.5 µg/mL (≈ 1.3 µM) in each case. The MIC90 was determined as 2 µg/mL (≈ 5.22 µM) in the data set with Escherichia coli [2] and 8 µg/mL (≈ 20.9 µM) against Staphylococcus aureus [6]. The ED50 in the data set on Escherichia coli [3] is more than 20 mg/kg. Also, half-maximal inhibition in data set [4] (IC50) was put at 15.7 µM. The molecule further had a bioavailability in data set [5] of 8%. In the data set on Rattus norvegicus [7], this molecule showed an AUC/dose of 13.9 µg·h/mL. Moreover, the Ratio in the data set on Escherichia coli [8] is reported as less than 4. Besides, the fraction unbound in [12] is 0.27. Besides, the half-life in [14] is 3.9 h.

As for `CCc1c(-c2ccc(N3C[C@@H]4[C@@H](N)[C@@H]4C3)cc2)[nH]c(=O)c(C(=O)O)c1O`, the results for the MIC50 against Escherichia coli [2] and against Staphylococcus aureus [6] were 0.25 µg/mL (≈ 0.703 µM) and 1 µg/mL (≈ 2.81 µM), respectively. Besides, the MIC90 in the data set on Escherichia coli [2] and against Staphylococcus aureus [6] was 8 µg/mL (≈ 22.5 µM) in each case. Also, the minimum inhibitory concentration (MIC) in the data set with Klebsiella pneumoniae was 0.39 µg/mL (≈ 1.1 µM); in the data set on Acinetobacter baumannii it was 0.78 µg/mL (≈ 2.19 µM); with Staphylococcus aureus [6], 0.5 to 8 µg/mL (≈ 1.41 to 22.5 µM); in the data set on Escherichia coli [9], 0.049 µg/mL (≈ 0.138 µM); with Escherichia coli [10], 0.19 µg/mL (≈ 0.535 µM); in the data set on Escherichia coli [11], 12.5 µg/mL (≈ 35.2 µM). Besides, the minimal inhibitory concentration (MIC) in the data set on Escherichia coli [13] came to 0.78 µg/mL. For the same molecule, in data set [15], the half-life is 2.9 h. The ED50 with Escherichia coli [3] was determined as 8 mg/kg. In addition, the concentration for half-maximal inhibition (IC50) was found to be 2.4 µM in [4] and 0.77 µM in data set [18]. The same molecule had a bioavailability in data set [5] of 17%. Further, the AUC/dose with Rattus norvegicus [16] was 30.7 µg·h/mL. For the same molecule, the Vd in data set [17] stood at 0.54 L/kg. Also, the fraction unbound in data set [12] was 0.12.

Turning to `CCc1c(-c2ccc(N(C)C)cc2)[nH]c(=O)c(C(=O)O)c1O`, the MIC was 3.1 µg/mL (≈ 10.3 µM) with Staphylococcus aureus [19]; 3.9 µg/mL (≈ 12.9 µM) against Klebsiella pneumoniae; 6.3 µg/mL (≈ 20.8 µM) with Acinetobacter baumannii; 0.03 µg/mL (≈ 0.0992 µM) in the data set on Escherichia coli [9]; 0.78 to 0.8 µg/mL (≈ 2.58 to 2.65 µM) in the data set with Escherichia coli [10]; 15.6 µg/mL (≈ 51.6 µM) against Escherichia coli [11]. In addition, the MIC with Escherichia coli [13] was more than 25 µg/mL. The inhibition in data set [20] was found to be 30%. Also, half-maximal inhibition in data set [18] (IC50) was put at 11 µM. For the same molecule, in the data set with Staphylococcus aureus [21], the inhibition result is “Active”.
